Test results taken from patent US12370235B2, “Synthetic, non-natural antimicrobial peptides inspired by Staphylococcus auricularis delta toxin” (University of Saskatchewan, priority 2021, dated 2025).
Ends that are not written are not given here.

Tests used:
[1] = tested on: S. aureus ATCC 29213; assay: MIC, broth dilution; format: cell-based, Staphylococcus aureus; conditions: Table 5; STIP3 variants, highest concentration 100 μg/mL
Outline: (§1)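 Peptides (95% purity) were serially diluted 2-fold and mixed with bacteria diluted to OD 6×10^−4 in cation-adjusted Mueller Hinton broth. Standing cultures were incubated overnight at 37° C. MIC was the lowest peptide concentration with no observed growth.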

[2] = tested on: S. aureus ATCC 33592 (MRSA SCCmec type III); assay: MIC, broth dilution; format: cell-based, Staphylococcus aureus; conditions: Table 5; STIP3 variants, highest concentration 100 μg/mL
Outline: as §1

[3] = tested on: S. aureus ATCC BAA-1683 (MRSA SCCmec type IV); assay: MIC, broth dilution; format: cell-based, Staphylococcus aureus; conditions: Table 5; STIP3 variants, highest concentration 100 μg/mL
Outline: as §1

[4] = tested on: S. aureus ATCC BAA-2094 (MRSA SCCmec type V); assay: MIC, broth dilution; format: cell-based, Staphylococcus aureus; conditions: Table 5; STIP3 variants, highest concentration 100 μg/mL
Outline: as §1

[5] = tested on: S. aureus ATCC BAA-2313 (MRSA SCCmec type XI); assay: MIC, broth dilution; format: cell-based, Staphylococcus aureus; conditions: Table 5; STIP3 variants, highest concentration 100 μg/mL
Outline: as §1

[6] = tested on: S. aureus ATCC BAA-41 (MRSA SCCmec type II); assay: MIC, broth dilution; format: cell-based, Staphylococcus aureus; conditions: Table 5; STIP3 variants, highest concentration 100 μg/mL
Outline: as §1

[7] = tested on: S. aureus ATCC BAA-42 (MRSA SCCmec type VI); assay: MIC, broth dilution; format: cell-based, Staphylococcus aureus; conditions: Table 5; STIP3 variants, highest concentration 100 μg/mL
Outline: as §1

[8] = tested on: S. aureus ATCC BAA-44 (MRSA SCCmec type I); assay: MIC, broth dilution; format: cell-based, Staphylococcus aureus; conditions: Table 5; STIP3 variants, highest concentration 100 μg/mL
Outline: as §1

[9] = tested on: Mannheimia haemolytica ATCC 33393; assay: MIC, broth dilution; format: cell-based; conditions: Table 11; highest concentration 25 μg/mL
Outline: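 Peptides (95% purity) in 2-fold dilution series were mixed with M. haemolytica diluted to OD 6×10^−4 in cation-adjusted Mueller Hinton broth and incubated standing overnight at 37 °C. MIC was the lowest concentration with no visible growth.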

[10] = tested on: C. albicans MYA-2876; assay: MIC, YPD broth; format: cell-based, Candida albicans; conditions: Table 8
Outline: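 Minimum inhibitory concentrations against Candida albicans were determined in YPD broth (10 g/L yeast extract, 20 g/L peptone, 20 g/L dextrose) using peptides of 95% purity. A 180 μl volume of diluted yeast was combined with 20 μl of peptide in a 2-fold dilution series in 96-well plates, with sterile water as control, then incubated standing overnight at 37° C.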

[11] = tested on: C. albicans Y537; assay: MIC, YPD broth; format: cell-based, Candida albicans; conditions: Table 8
[12] = tested on: Candida duobushaemulonii AR 392; assay: MIC, YPD broth, CDC and FDA AR Candida isolate panel; format: cell-based; conditions: Table 9 top part: titrations from 1.56 to 100 μg/mL
Outline: (§2)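 Each isolate was diluted to an optical density of […] and combined with peptide at twofold stepwise concentrations. Plates then sat unshaken overnight at 37° C. Sterile water replaced peptide in control wells.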

[13] = tested on: Candida krusei AR 397; assay: as above; format: cell-based; conditions: Table 9 top part: titrations from 1.56 to 100 μg/mL
Outline: as §2

[14] = tested on: Candida lusitaniae AR 398; assay: as above; format: cell-based; conditions: Table 9 top part: titrations from 1.56 to 100 μg/mL
Outline: as §2

[15] = tested on: Kodamae ohmeri AR 396; assay: as above; format: cell-based; conditions: Table 9 top part: titrations from 1.56 to 100 μg/mL
Outline: as §2

[16] = tested on: Saccharomyces cerevisiae AR 400; assay: as above; format: cell-based; conditions: Table 9 top part: titrations from 1.56 to 100 μg/mL
Outline: as §2

[17] = tested on: Candida duobushaemulonii AR 391; assay: as above; format: cell-based; conditions: Table 9 top part: titrations from 1.56 to 100 μg/mL
Outline: as §2

[18] = tested on: Candida duobushaemulonii AR 394; assay: as above; format: cell-based; conditions: Table 9 top part: titrations from 1.56 to 100 μg/mL
Outline: as §2

[19] = tested on: Saccharomyces cerevisiae AR 399; assay: as above; format: cell-based; conditions: Table 9 top part: titrations from 1.56 to 100 μg/mL
Outline: as §2

| Sequence | MIC S. aureus ATCC 29213 [1] [µg/mL] | MIC S. aureus ATCC 33592 (III) [2] [µg/mL] | MIC S. aureus ATCC BAA 1683 (IV) [3] [µg/mL] | MIC S. aureus ATCC BAA 2094 (V) [4] [µg/mL] | MIC S. aureus ATCC BAA 2313 (XI) [5] [µg/mL] | MIC S. aureus ATCC BAA 41 (II) [6] [µg/mL] | MIC S. aureus ATCC BAA 42 (VI) [7] [µg/mL] | MIC S. aureus ATCC BAA 44 (I) [8] [µg/mL] | MIC (μg/mL) M. haemolytica [9] [µg/mL] | MIC C. albicans MYA-2876 [10] | MIC C. albicans Y537 [11] | MIC (μg/mL) Candida duobushaemulonii AR 392 [12] | MIC (μg/mL) Candida krusei AR 397 [13] [µg/mL] | MIC (μg/mL) Candida lusitaniae AR 398 [14] [µg/mL] | MIC (μg/mL) Kodamae ohmeri AR 396 [15] | MIC (μg/mL) Saccharomyces cerevisiae AR 400 [16] [µg/mL] | MIC (μg/mL) Candida duobushaemulonii AR 391 [17] [µg/mL] | MIC (μg/mL) Candida duobushaemulonii AR 394 [18] [µg/mL] | MIC (μg/mL) Saccharomyces cerevisiae AR 399 [19] [µg/mL] |
| --- | --- | --- | --- | --- | --- | --- | --- | --- | --- | --- | --- | --- | --- | --- | --- | --- | --- | --- | --- |
| TVKALVKWILKTVAKFW [STIP3-21, TVKALVKWILKTVAKFW] | 25 | 25 | 12.5 | 12.5 | 12.5 | 25 | 25 | 25 | 12.5 | > (> symbol indicates that no inhibition was observed at the highest concentration of peptide tested: 100 μg/mL) | > (> symbol indicates that no inhibition was observed at the highest concentration of peptide tested: 100 μg/mL) | > (MIC values reported at the top of the table (above the double line) are based on titrations from 1.56 to 100 μg/mL) | 100 | 50 | > (MIC values reported at the top of the table (above the double line) are based on titrations from 1.56 to 100 μg/mL) | 200 | – | – | – |
| TVKALVKWILKTVAKFA [STIP3-19, TVKALVKWILKTVAKFA] | 50 | 25 | 25 | 25 | 25 | 50 | 50 | 25 | 12.5 | > (> symbol indicates that no inhibition was observed at the highest concentration of peptide tested: 100 μg/mL) | > (> symbol indicates that no inhibition was observed at the highest concentration of peptide tested: 100 μg/mL) | 100 µg/mL | 100 | 50 | > (MIC values reported at the top of the table (above the double line) are based on titrations from 1.56 to 100 μg/mL) | 50 | 50 | 100 | 100 |
